Experimental findings from patent publication US6544541B1, “Devices and compounds for treating arterial restenosis” (Cardiovascular Solutions, Inc., priority 1999, dated 2003) are described below.

The experiment has as its system MAP kinase. In words: MAP kinase activity gel after insulin stimulation of H4IIE cells. It counts as cell-based. The settings on record: 50 μM MIBG; 1 μM insulin; 2-20 minutes; FIG. 27. How it is done:
Extracts were prepared at 2, 5, 10 and 20 minutes after insulin addition. MAP kinase activity was measured using an activity gel protocol with myelin basic protein polymerized in the separating gel, as described in Yau and Zahradka, 1997, Mol Cell Biochem 172: 59-66. Scanning densitometry was used to quantify the band intensities. The location of the 42 and 44 kDa MAP kinase bands was confirmed by Western blot analysis.

On to meta-iodobenzylguanidine [MIBG], for which the “MAP kinase activation by insulin” value is recorded as “does not inhibit MAP kinase activation by insulin”.
